Measurements from patent US5977386A, “6-thio-substituted paclitaxels” (Bristol-Myers Squibb Company, priority 1997, dated 1999).
Like-named read-outs stand apart in the source and are kept apart here.

Assays:
[1] = tested on: HCT-116 human colon carcinoma cells; assay: MTS cytotoxicity assay (72 h exposure); type: cell-based
Description: Cytoxicity was assessed in HCT-116 human colon carcinoma cells by MTS (3-(4,5-dimethylthiazol-2-yl)-5-(3-carboxymethoxyphenyl)-2-(4-sulphenyl)-2H-tetrazolium, inner salt) assay as reported in T. L. Riss, et. al., "Comparison of MTT, XTT, and a novel tetrazolium compound MTS for in vitro proliferation and chemosensitivity assays.," Mol. Biol. Cell 3 (Suppl.):184a, 1992. Cells were plated at 4,000 cell/well in 96 well microtiter plates and 24 hours later drugs were added and serial diluted. The cells were incubated at 37° for 72 hours at which time the tetrazolium dye, MTS at 333 μg/ml (final concentration), in combination with the electron coupling agent phenazine methosulfate at 25 μM (final concentration) was added. A dehydrogenase enzyme in live cells reduces the MTS to a form that absorbs light at […] which can be quantitated spectrophotometrically. The greater the absorbance the greater the number of live cells. The results are expressed as an IC50, which is the drug concentration required to inhibit cell proliferation (i.e. absorbance at 450 nm) to 50% of that of untreated control cells. The IC50 values for compounds evaluated in this assay are evaluated in Table I.
^1 Cytotoxicity was determined after a 72 h exposure by MTS assay.

M109 lung carcinoma = assay: Mice M109 Model (In-Vivo), ip M109 lung carcinoma, median survival; parameters: species or system mouse; details: ip M109, Balb/c×DBA/2 F1 mice, ip injections days 5 and 8 post-implant, at optimal dose
Description: Balb/c×DBA/2 F1 hybrid mice were implanted intraperitoneally, as described by William Rose in Evaluation of Madison 109 Lung Carcinoma as a Model for Screening Antitumor Drugs, Cancer Treatment Reports, 65, No. 3-4 (1981), with 0.5 mL of a 2% (w/v) brei of M109 lung carcinoma.
Mice were treated with compounds under study by receiving intraperitoneal injections of various doses on days 5 and 8 post-implant. Mice were followed daily for survival until approximately 75 days post-tumor implant. One group of mice per experiment remained untreated and served as the control group.
Median survival times of compound-treated (T) mice were compared to the median survival time of the control (C) mice. The ratio of the two values for each compound-treated group of mice was multiplied by 100 and expressed as a percentage (i.e. % T/C) in the following Table II for representative compounds.
(§1) ^a Optimal dose (mg/kg/inj) if active, otherwise, maximal tolerated
(§2) dose (MTD) or highest dose tested.

M5076 murine sarcoma = assay: sc M5076 murine sarcoma model, tumor growth delay; type: in vivo; details: sc M5076, iv on days 1, 3, 5, 7, and 9 post-implant, at optimal dose
Description: M5076: Taxane derivatives were tested in the M5076 murine sarcoma model using the general materials and methods described by Rose, W. C. in Anticancer Research 6: 557-562, 1986, for subcutaneous M5076 implants, with the following modifications: treatments were administered intravenously on Days 1, 3, 5, 7, and 9 post-tumor implant using eight mice per treatment and untreated control group. Activity was determined based on an increase in lifespan (as described in the preceding reference) of […], and, in particular, on a delay in tumor growth equivalent to at least 1 gross log cell kill (LCK). The latter was calculated as described in Rose, W. C. and Basler, G. A. in In Vivo 4: 391-396, 1990.
as §1, §2

[2] = Homo sapiens, HCT-116, read-out: Cytotoxicity Assay IC50 against HCT 116 Human colon tumor cell line
[3] = Homo sapiens, HCT-116, 72 h, read-out: Cytotoxicity Assay IC50 against HCT 116 Human colon tumor cell line

| SMILES | IC50 ([1]; 4320 min, read-out: Cytotoxicity Assay IC50 against HCT 116 Human colon tumor cell line) [nM] | Maximum % T/C (ratio of median survival times treated/control x 100) (M109 lung carcinoma) [%] | Maximum T-C in LCK (gross log cell kill) (M5076 murine sarcoma) [LCK] | IC50 [1, 2] [nM] | IC50 [1, 3] [nM] |
| --- | --- | --- | --- | --- | --- |
| CC(=O)O[C@H]1C(=O)[C@]2(C)C[C@@H]([S+](C)[O-])[C@H]3OC[C@@]3(OC(C)=O)[C@H]2[C@H](OC(=O)c2ccccc2)[C@]2(O)C[C@H](OC(=O)[C@H](O)[C@@H](NC(=O)c3ccccc3)c3ccccc3)C(C)=C1C2(C)C (single isomer, unassigned) [Compound 19, 7-deoxy-6β-methyl sulfoxide-paclitaxel] | 50.9 | 169 | 0.4 |  |  |
| CC(=O)O[C@H]1C(=O)[C@]2(C)C[C@@H](S(C)(=O)=O)[C@H]3OC[C@@]3(OC(C)=O)[C@H]2[C@H](OC(=O)c2ccccc2)[C@]2(O)C[C@H](OC(=O)[C@H](O)[C@@H](NC(=O)c3ccccc3)c3ccccc3)C(C)=C1C2(C)C [Compound 21, 7-deoxy6β-methyl sulfone-paclitaxel] |  | 147 | 0 | > 109 |  |
| CC(=O)O[C@H]1C(=O)[C@]2(C)C[C@@H](SCC(=O)O)[C@H]3OC[C@@]3(OC(C)=O)[C@H]2[C@H](OC(=O)c2ccccc2)[C@]2(O)C[C@H](OC(=O)[C@H](O)[C@@H](NC(=O)c3ccccc3)c3ccccc3)C(C)=C1C2(C)C [Compound 55] |  | 107 |  | > 108 |  |
| CC(=O)O[C@H]1C(=O)[C@]2(C)C[C@@H](Sc3cccs3)[C@H]3OC[C@@]3(OC(C)=O)[C@H]2[C@H](OC(=O)c2ccccc2)[C@]2(O)C[C@H](OC(=O)[C@H](O)[C@@H](NC(=O)c3ccccc3)c3ccccc3)C(C)=C1C2(C)C [Compound 54, 6-b-thio-(2-thienyl)-7-deoxypaclitaxel] |  | 148 |  |  | 1.1 |
| COC(=O)CS[C@@H]1C[C@@]2(C)C(=O)[C@H](OC(C)=O)C3=C(C)[C@@H](OC(=O)[C@H](O)[C@@H](NC(=O)c4ccccc4)c4ccccc4)C[C@@](O)([C@@H](OC(=O)c4ccccc4)[C@@H]2[C@]2(OC(C)=O)CO[C@H]12)C3(C)C [Compound 40, 6b-thioacetyl methyl ester-7-deoxypaclitaxel] |  | 103 |  |  | 2.5 |
| CC(=O)O[C@H]1C(=O)[C@]2(C)C[C@@H](SC#N)[C@H]3OC[C@@]3(OC(C)=O)[C@H]2[C@H](OC(=O)c2ccccc2)[C@]2(O)C[C@H](OC(=O)[C@H](O)[C@@H](NC(=O)c3ccccc3)c3ccccc3)C(C)=C1C2(C)C [Compound 17, 7-deoxy-6β-thiocyanato-paclitaxel] |  | 194 | 0.7 |  | 3.8 |
